Assays:
Assay type in all cases: cell-based
[1] = test system: MKN45 cells; assay: MKN45 cell proliferation assay (CellTiter-Glo); conditions: Homo sapiens, MKN-45, 72 h; MKN45 cell line; 3 days incubation; at least duplicate experiments; read-out: Prolif. IC50
Protocol: The effect of inhibitors on the proliferation of MKN45 cells was determined using the following protocol. MKN45 cells were plated in Corning 3917 96-well white tissue culture treated plates in growth medium (RPMI, 10% FCS) at a density of 5000 cells/well in a total volume of 135 μL and incubated at 37° C., 5% CO2, 95% humidity overnight. The following day, one-tenth volume of a 10× concentration of compounds was added to the wells in an 8-point dilution series. The dilution series was composed of an initial 1:5 dilution of a 10 mM stock of compound in DMSO, followed by serial 1:4 dilutions in DMSO, then a 1:20 dilution in growth medium prior to the 1:10 dilution into the cell plate. […] The typical dilution range is 10 μM to 0.6 nM. Once the compound was added to the cells, plates were incubated for 3 days at 37° C., 5% CO2 at 95% humidity. On the third day, after allowing all cells and reagents to come to room temperature, 25 μL of CellTiter-Glo reagent (Promega #G7573) was added to the wells. Plates were shaken on a platform for 10 minutes prior to reading luminescence for 0.1 seconds. The signal of the control wells was taken as 100% growth and growth inhibition was expressed as percent of control. IC50 values were determined from the percent of control data using a standard four-parameter model.
(§1) The IC50 values of exemplary compounds of the present invention determined in a cell proliferation assay using the MKN45 cell line according to the procedures described herein in at least duplicate experiments are abbreviated as follows and are shown in Table 2: A, IC50≦0.05 μM; B, 0.05 μM<IC50≦0.2 μM; C, 0.2 μM<IC50≦1 μM; D, IC50>1 μM; ND, not determined. The Example # of Table 2 corresponds to the compound example number as illustrated in the Examples section.
Treatment of this cell line with a selective c-MET inhibitor led to induction of apoptosis and inhibition of proliferation, whereas non-MET-amplified cell lines were not affected [Smolen et al., Proc. Natl. Acad. Sci. USA, 103(7):2316-2321 (2006)]. This cell line is thus “driven” by c-MET, and antiproliferative effects correlate very well with the inhibition of c-MET phosphorylation so that the cell proliferation IC50, values can be used as surrogate for the c-MET cell mechanistic IC50, values. Under the assay conditions described herein, the IC50 values correlate nearly 1:1.

[2] = biological target: T1, RON (Homo sapiens, UniProt Q04912); assay: sfRON cell mechanistic assay (HeLa), phosphorylated RON ELISA; conditions: HeLa cells transfected with sfRON; inhibition of phosphorylated RON; four hours incubation; at least duplicate experiments; read-out: sfRON mech IC50
T1 sequence (Q04912 913-1400): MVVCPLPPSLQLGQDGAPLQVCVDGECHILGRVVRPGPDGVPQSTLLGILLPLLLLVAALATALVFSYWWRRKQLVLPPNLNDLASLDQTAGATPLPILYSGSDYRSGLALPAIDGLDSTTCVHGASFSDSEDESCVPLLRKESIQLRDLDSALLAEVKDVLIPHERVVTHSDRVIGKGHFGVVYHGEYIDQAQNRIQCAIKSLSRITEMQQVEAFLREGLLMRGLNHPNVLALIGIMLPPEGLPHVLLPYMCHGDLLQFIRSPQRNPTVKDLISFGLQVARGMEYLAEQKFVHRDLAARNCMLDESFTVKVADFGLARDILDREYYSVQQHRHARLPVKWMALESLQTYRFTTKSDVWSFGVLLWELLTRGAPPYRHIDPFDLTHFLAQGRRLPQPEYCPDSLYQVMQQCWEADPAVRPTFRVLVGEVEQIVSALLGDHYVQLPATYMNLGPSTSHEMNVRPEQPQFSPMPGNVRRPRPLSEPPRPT
Protocol: The cellular activity of the compounds of the present invention against RON may be determined by the following procedure. HeLa cells were plated in Falcon 3072 96-well plates in growth media (DMEM, 10% FBS, 1% L-glutamine) at a density of 10000 cells/well and incubated at 37° C., 5% CO2 overnight. The following day, cells were transfected with 0.2 μg sfRON-pcDNA plasmid DNA with 0.5 μL Lipofectamine-2000 per well in the presence of 50 μL OPTI-MEM, incubated at 37° C., 5% CO2 overnight. Costar 3915 96-well assay plates were coated with rabbit Anti-RON antibody at 2.0 μg/mL, sealed, and incubated overnight at 4° C. On the third day, coated plates were washed with PBS and blocked with 3% BSA. For the sfRON transfected cells, one-tenth volume of a 10× concentration of compounds was added to the wells in a 6-point dilution series. The dilution series was composed of an initial 1:5 dilution of a 10 mM DMSO stock solution of compound in DMSO, followed by a 1:10 dilution in growth media, for a final DMSO concentration on cells of 0.5%. Control wells were treated with 0.5% DMSO. The typical range of dilution was 10 μM to 3 nM. Once compound was added to the cells, plates were incubated for four hours at 37° C., 5% CO2. Plates were then washed in PBS, and lysed in triton-based lysis buffer. Lysates were transferred to the blocked capture plates. The phosphorylated RON levels were measured by incubating with a Goat polyclonal antibody against phosphorylated RON ([pYpY1238/1239]) followed by an anti-Goat antibody conjugated to HRP. Signal was measured on a Wallac Victor plate reader with luminance. The DMSO signal of the control wells was defined as 100% and the percent of inhibition of phosphorylated RON was expressed as percent of control. IC50 values were determined from the percent of control data using a standard four-parameter model.
The IC50 values of exemplary compounds of the present invention determined in a sfRON cell mechanistic assay using the HeLa cell line according to the procedures described herein in at least duplicate experiments are abbreviated as follows and are shown in Table 3: A, IC50≦0.2 μM; B, 0.2 μM<IC50≦1.0 μM; C, IC50>1 μM; ND, not determined. The Example # of Table 3 corresponds to the compound example number as illustrated in the Examples section.

[3] = test system: Karpas-299 cells; assay: Karpas-299 cell proliferation assay (CellTiter-Glo); conditions: Homo sapiens, 72 h; Karpas-299 cell line (NPM-ALK); 3 days incubation; at least duplicate experiments; read-out: Prolif. IC50
Protocol: The effect of inhibitors on the proliferation of Karpas-299 cells (DSMZ no. ACC 31) was determined using the following protocol. Karpas-299 cells were plated in 96-well white tissue culture treated plates (Corning 3917) in growth medium (RPMI, 10% FCS) at a density of 5000 cells/well in a total volume of 135 μL and incubated at 37° C., 5% CO2, 95% humidity overnight. The following day, one-tenth volume of a 10× concentration of compounds was added to the wells in an 8-point dilution series. Compounds were serially diluted (1:4) in DMSO from a 10 mM stock solution prior to dilution in growth media to the 10× working concentrations (5% DMSO). Final concentration of DMSO in compound-treated wells was 0.5%. Control wells containing growth media or growth media/0.5% DMSO were included in all test plates. […] Once the compounds were added to the cells, plates were incubated for 3 days at 37° C., 5% CO2 at 95% humidity. After 72 hours, all cells and reagents were equilibrated to room temperature and 15 μL of CellTiter-Glo reagent (Promega # G7573) was added to each well. Plates were shaken on a platform for 10 minutes at room temperature prior to reading luminescence. The value of the signal of the control wells was set as 100% growth and growth inhibition was expressed as percent of control. IC50 values were determined from the percent of control data using a standard four-parameter curve fit equation.
as §1, with “the Karpas-299” for “the MKN45”, “Table 5:” for “Table 2:”, “Table 5” for “Table 2”
The Karpas-299 cell line has a t(2; 5) chromosomal translocation and expresses the NPM-ALK fusion protein, resulting in constitutively active ALK. […] Ther. 6(12):3314-22 (2007)]. With this “ALK-driven” cell line, the cell proliferation IC50 values can thus be used as surrogate for the p-ALK cell mechanistic IC50 values.

Row | Structure (SMILES) | IC50 [1] | IC50 [2] | IC50 [3]
1 | Cc1c(-c2cnc3[nH]cc([C@H](C)c4c(OC(F)F)ccc(F)c4Cl)c3c2)cnn1[C@H]1CC[C@@H](N(C)CC(=O)O)CC1 [Example 90, N-{cis-4-[4-(3-{(1S)-1-[2-Chloro-6-(difluoromethoxy)-3-fluorophenyl]ethyl}-1H-pyrrolo[2,3-b]pyridin-5-yl)-5-methyl-1H-pyrazol-1-yl]cyclohexyl}-N-methylglycine] | 50 to 200 nM | > 1000 nM | 50 to 200 nM
2 | Cc1c(-c2cnc3[nH]cc([C@@H](CF)c4c(Cl)ccc(F)c4Cl)c3c2)cnn1[C@H]1CC[C@H](O)CC1 [Example 117, trans-4-(4-{3-[(1R)-1-(2,6-dichloro-3-fluorophenyl)-2-fluoroethyl]-1H-pyrrolo[2,3-b]pyridin-5-yl}-5-methyl-1H-pyrazol-1-yl)cyclohexanol] | > 1000 nM |  | > 1000 nM
3 | COc1ccc(F)c(Cl)c1[C@@H](C)c1c[nH]c2ncc(-c3cn(C[C@H](O)CO)nc3C(F)(F)F)cc12 [Example 37, (2S)-3-[4-{3-[(1S)-1-(2-Chloro-3-fluoro-6-methoxyphenyl)ethyl]-1H-pyrrolo[2,3-b]pyridin-5-yl}-3-(trifluoromethyl)-1H-pyrazol-1-yl]propane-1,2-diol] | 200 to 1000 nM |  | 200 to 1000 nM
4 | Cc1c(-c2cnc3[nH]cc([C@@H](C)c4c(OC(F)F)ccc(F)c4Cl)c3c2)cnn1[C@H]1CC[C@H](O)CC1 [Example 98, trans-4-[4-(3-{(1R)-1-[2-Chloro-6-(difluoromethoxy)-3-fluorophenyl]ethyl}-1H-pyrrolo[2,3-b]pyridin-5-yl)-5-methyl-1H-pyrazol-1-yl]cyclohexanol] | > 1000 nM |  | 
5 | [2H]C([2H])([2H])[C@H](c1c(OC(F)F)ccc(F)c1Cl)c1c[nH]c2ncc(-c3cnn([C@H]4CC[C@H](O)CC4)c3C)cc12 [Example 113, trans-4-(4-{3-[(1S)-1-[2-Chloro-6-(difluoromethoxy)-3-fluorophenyl](2,2,2-^2H3)ethyl]-1H-pyrrolo[2,3-b]pyridin-5-yl}-5-methyl-1H-pyrazol-1-yl)cyclohexanol] | ≤ 50 nM | ≤ 200 nM | ≤ 50 nM
6 | [2H]c1[nH]c2ncc(-c3cnn([C@H]4CC[C@H](O)CC4)c3C)cc2c1[C@@H](C)c1c(OC(F)F)ccc(F)c1Cl [Example 95, trans-4-{-4-[3-{(1R)-1-[2-Chloro-6-(difluoromethoxy)-3-fluorophenyl]-ethyl}(2-^2H)-1H-pyrrolo[2,3-b]pyridin-5-yl]-5-methyl-1H-pyrazol-1-yl}cyclohexanol] | 200 to 1000 nM |  | 200 to 1000 nM
7 | [2H]c1[nH]c2ncc(-c3cnn([C@H]4CC[C@H](O)CC4)c3C)cc2c1[C@H](C)c1c(OC(F)F)ccc(F)c1Cl [Example 94, trans-4-{-4-[3-{(1S)-1-[2-Chloro-6-(difluoromethoxy)-3-fluorophenyl]ethyl}(2-^2H)-1H-pyrrolo[2,3-b]pyridin-5-yl]-5-methyl-1H-pyrazol-1-yl}cyclohexanol] | ≤ 50 nM |  | ≤ 50 nM
8 | CCOC(=O)[C@H]1CC[C@H](n2nc(C)c(-c3cnc4[nH]cc([C@H](C)c5c(OC)ccc(F)c5Cl)c4c3)c2C)CC1 [Example 26, Ethyl trans-4-(4-{3-[(1S)-1-(2-chloro-3-fluoro-6-methoxyphenyl)ethyl]-1H-pyrrolo[2,3-b]pyridin-5-yl}-3,5-dimethyl-1H-pyrazol-1-yl)cyclohexanecarboxylate] |  |  | ≤ 50 nM
9 | COc1ccc(F)c(Cl)c1[C@@H](C)c1c[nH]c2ncc(-c3c(C)nn([C@H]4CC[C@H](C(=O)O)CC4)c3C)cc12 [Example 25, trans-4-(4-{3-[(1S)-1-(2-Chloro-3-fluoro-6-methoxyphenyl)ethyl]-1H-pyrrolo[2,3-b]pyridin-5-yl}-3,5-dimethyl-1H-pyrazol-1-yl)cyclohexanecarboxylic acid] |  |  | ≤ 50 nM
10 | COc1ccc(F)c(Cl)c1[C@@H](C)c1c[nH]c2ncc(-c3cnn(C[C@H](O)CO)c3C(F)(F)F)cc12 [Example 36, (2S)-3-[4-{3-[(1S)-1-(2-Chloro-3-fluoro-6-methoxyphenyl)ethyl]-1H-pyrrolo[2,3-b]pyridin-5-yl}-5-(trifluoromethyl)-1H-pyrazol-1-yl]propane-1,2-diol] | 50 to 200 nM |  | 200 to 1000 nM
